Tests used:
Type in all cases: in vivo
[1] = tested on: barnyard grass (Echinochloa crus-galli Beauv.); assay: Test Example 1: herbicidal effect on paddy field weeds before emergence; conditions: Dosage 5 kg/ha
Outline: (§1)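 Soil in pots is brought to paddy state and seeded with barnyard grass and bulrush; before germination, the soil receives a predetermined dosage of test compound in solution. After twenty-one days, control rate relative to untreated pots is calculated and graded.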

[2] = tested on: bulrush (Scirpus juncoides Roxb.); assay: as above; conditions: Dosage 5 kg/ha
Outline: as §1

[3] = tested on: barnyard grass (Echinochloa crus-galli Beauv.); assay: Test Example 2: herbicidal effect on paddy field weeds after emergence; conditions: Dosage 5 kg/ha; one-leaved stage; 21 days after treatment
Outline: (§2)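 Weeds in flooded paddy-soil pots were grown to the one-leaved stage, then the soil was treated with the compound solution at a set dosage.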

[4] = tested on: bulrush (Scirpus juncoides Roxb.); assay: as above; conditions: Dosage 5 kg/ha; one-leaved stage; 21 days after treatment
Outline: as §2

[5] = tested on: monochoria (Monochoria vaginalis Presl); assay: as above; conditions: Dosage 5 kg/ha; one-leaved stage; 21 days after treatment
Outline: as §2

[6] = tested on: barnyard grass (Echinochloa crus-galli Beauv.), Ec; assay: Test Example 3: herbicidal effect on upland weeds before emergence; conditions: dosage 5 kg/ha
Outline: (§3)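 Read-out is the weed-killing rate, scored fourteen days after a single spray application made before the weeds emerged. The spray was a liquid agent carrying the active compound at a prescribed dose.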

[7] = tested on: bird's eye speedwell (Veronica persica Poir.), Vp; assay: as above; conditions: dosage 5 kg/ha
Outline: as §3

[8] = tested on: cleavers (Galium aparine L.), Ga; assay: as above; conditions: dosage 5 kg/ha
Outline: as §3

[9] = tested on: cocklebur (Xanthium strumarium L.), Xs; assay: as above; conditions: dosage 5 kg/ha
Outline: as §3

[10] = tested on: forxtail grass (Alopecurus aequalis var. amurensis Ohwi), Am; assay: as above; conditions: foxtail grass, dosage 5 kg/ha
Outline: as §3

[11] = tested on: velvetleaf (Abutilon theophtasti L.), At; assay: as above; conditions: dosage 5 kg/ha
Outline: as §3

soybean plant (So) = assay: Test Example 3: phytotoxicity to upland crop plants, treatment before emergence; conditions: dosage 5 kg/ha
Outline: (§4)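 Phytotoxicity scores for soybean and wheat were assigned by a set criterion 14 days after a pre-emergence spray of a liquid preparation containing the test compound at a prescribed concentration.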

wheat (Wh) = assay: as above; conditions: dosage 5 kg/ha
Outline: as §4

[12] = tested on: barnyard grass (Echinochloa crus-galli Beauv.), Ec; assay: Test Example 4: herbicidal effect on upland weeds after emergence; conditions: dosage 5 kg/ha; sprayed after emergence; judged 14 days after treatment
Outline: (§5)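 Seeds sown in soil and covered. Plants raised to specified leaf stages. Agent with test compound at a prescribed concentration sprayed. Herbicidal effect and crop damage scored after 14 days as weed-killing rate.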

[13] = tested on: bird's eye speedwell (Veronica persica Poir.), Vp; assay: as above; conditions: dosage 5 kg/ha; sprayed after emergence; judged 14 days after treatment
Outline: as §5

[14] = tested on: cleavers (Galium aparine L.), Ga; assay: as above; conditions: dosage 5 kg/ha; sprayed after emergence; judged 14 days after treatment
Outline: as §5

[15] = tested on: cocklebur (Xanthium strumarium L.), Xs; assay: as above; conditions: dosage 5 kg/ha; sprayed after emergence; judged 14 days after treatment
Outline: as §5

[16] = tested on: forxtail grass (Alopecurus aequalis var. amurensis Ohwi), Am; assay: as above; conditions: dosage 5 kg/ha; sprayed after emergence; judged 14 days after treatment
Outline: as §5

[17] = tested on: velvetleaf (Abutilon theophtasti L.), At; assay: as above; conditions: dosage 5 kg/ha; sprayed after emergence; judged 14 days after treatment
Outline: as §5

soybean plant = assay: Test Example 4: phytotoxicity to upland crop plants, treatment after emergence; conditions: dosage 5 kg/ha, sprayed after emergence, judged 14 days after treatment
Outline: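 Scores of weed-killing rate, with crop phytotoxicity, come from inspection 14 days after plants in soil vats, grown to specified leaf stages, are sprayed with a formulation holding the compound at a prescribed concentration.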

wheat = assay: as above; conditions: dosage 5 kg/ha, sprayed after emergence, judged 14 days after treatment
Outline: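 Post-emergence foliar spray, compound at prescribed concentration, applied at defined leaf stages; weeds plus soybean/wheat grown in soil vats. Read-out: weed-killing rate and crop injury, 14 d post-treatment.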

Row | SMILES | Pre-emergence treatment Barnyard grass (herbicidal effect) [1] | Pre-emergence treatment Bulrush (herbicidal effect) [2] | Post-emergence treatment Barnyard grass (herbicidal effect) [3] | Post-emergence treatment Bulrush (herbicidal effect) [4] | Post-emergence treatment Monochoria (herbicidal effect) [5] | Herbicidal effect Ec [6] | Herbicidal effect Vp [7] | Herbicidal effect Ga [8] | Herbicidal effect Xs [9] | Herbicidal effect Am [10] | Herbicidal effect At [11] | Phytotoxicity So (soybean plant (So)) | Phytotoxicity Wh (wheat (Wh)) | Herbicidal effect Ec [12] | Herbicidal effect Vp [13] | Herbicidal effect Ga [14] | Herbicidal effect Xs [15] | Herbicidal effect Am [16] | Herbicidal effect At [17] | Phytotoxicity So (soybean plant) | other results
1 | CCCNC(=O)c1nc2scc(Br)c2cc1C(=O)Nc1c(CC)ccc(Cl)c1CC [compound 814] | 5 (Weed-killing rate is 100%.) | 5 (Weed-killing rate is 100%.) | 5 (Weed-killing rate is 100%.) | 5 (Weed-killing rate is 100%.) | 5 (Weed-killing rate is 100%.) | 5 (Weed-killing rate is 100%.) | 5 (Weed-killing rate is 100%.) | 4 (Weed-killing rate is 90-99%.) | 4 (Weed-killing rate is 90-99%.) | 5 (Weed-killing rate is 100%.) | 5 (Weed-killing rate is 100%.) | 3 (Crop-killing rate is 70-89%.) | 4 (Crop-killing rate is 90-99%.) | 5 (Weed-killing rate is 100%.) | 5 (Weed-killing rate is 100%.) | 4 (Weed-killing rate is 90-99%.) | 4 (Weed-killing rate is 90-99%.) | 5 (Weed-killing rate is 100%.) | 5 (Weed-killing rate is 100%.) | 3 (Crop-killing rate is 70-89%.) | Phytotoxicity Wh (wheat): 4 (Crop-killing rate is 90-99%.)
2 | CCCNC(=O)c1nc2c(ccn2C)cc1C(=O)Nc1c(CC)ccc(Cl)c1CC [compound 824] | 5 (Weed-killing rate is 100%.) | 5 (Weed-killing rate is 100%.) | 5 (Weed-killing rate is 100%.) | 5 (Weed-killing rate is 100%.) | 5 (Weed-killing rate is 100%.) | 5 (Weed-killing rate is 100%.) | 5 (Weed-killing rate is 100%.) | 5 (Weed-killing rate is 100%.) | 5 (Weed-killing rate is 100%.) | 5 (Weed-killing rate is 100%.) | 5 (Weed-killing rate is 100%.) | 5 (Crop-killing rate is 100%.) | 5 (Crop-killing rate is 100%.) | 5 (Weed-killing rate is 100%.) | 5 (Weed-killing rate is 100%.) | 5 (Weed-killing rate is 100%.) | 5 (Weed-killing rate is 100%.) | 5 (Weed-killing rate is 100%.) | 5 (Weed-killing rate is 100%.) | 4 (Crop-killing rate is 90-99%.) | Phytotoxicity Wh (wheat): 5 (Crop-killing rate is 100%.)
3 | CCCNC(=O)c1nc2cscc2cc1C(=O)Nc1c(CC)ccc(Cl)c1CC [compound 836] | 5 (Weed-killing rate is 100%.) | 5 (Weed-killing rate is 100%.) | 5 (Weed-killing rate is 100%.) | 5 (Weed-killing rate is 100%.) | 5 (Weed-killing rate is 100%.) | 5 (Weed-killing rate is 100%.) | 5 (Weed-killing rate is 100%.) | 5 (Weed-killing rate is 100%.) | 5 (Weed-killing rate is 100%.) | 5 (Weed-killing rate is 100%.) | 5 (Weed-killing rate is 100%.) | 4 (Crop-killing rate is 90-99%.) | 5 (Crop-killing rate is 100%.) | 5 (Weed-killing rate is 100%.) | 5 (Weed-killing rate is 100%.) | 5 (Weed-killing rate is 100%.) | 5 (Weed-killing rate is 100%.) | 5 (Weed-killing rate is 100%.) | 5 (Weed-killing rate is 100%.) | 4 (Crop-killing rate is 90-99%.) | Phytotoxicity Wh (wheat): 5 (Crop-killing rate is 100%.)
4 | CCCNC(=O)c1nc2ccoc2cc1C(=O)Nc1c(CC)ccc(Cl)c1CC [compound 847] | 5 (Weed-killing rate is 100%.) | 5 (Weed-killing rate is 100%.) | 5 (Weed-killing rate is 100%.) | 5 (Weed-killing rate is 100%.) | 5 (Weed-killing rate is 100%.) | 5 (Weed-killing rate is 100%.) | 5 (Weed-killing rate is 100%.) | 5 (Weed-killing rate is 100%.) | 5 (Weed-killing rate is 100%.) | 5 (Weed-killing rate is 100%.) | 5 (Weed-killing rate is 100%.) | 4 (Crop-killing rate is 90-99%.) | 5 (Crop-killing rate is 100%.) | 5 (Weed-killing rate is 100%.) | 5 (Weed-killing rate is 100%.) | 5 (Weed-killing rate is 100%.) | 5 (Weed-killing rate is 100%.) | 5 (Weed-killing rate is 100%.) | 5 (Weed-killing rate is 100%.) | 4 (Crop-killing rate is 90-99%.) | Phytotoxicity Wh (wheat): 5 (Crop-killing rate is 100%.)
5 | CCNC(=O)c1nc2ccsc2cc1C(=O)Nc1c(CC)ccc(Cl)c1CC [compound 870] | 5 (Weed-killing rate is 100%.) | 5 (Weed-killing rate is 100%.) | 5 (Weed-killing rate is 100%.) | 5 (Weed-killing rate is 100%.) | 5 (Weed-killing rate is 100%.) | 5 (Weed-killing rate is 100%.) | 5 (Weed-killing rate is 100%.) | 5 (Weed-killing rate is 100%.) | 5 (Weed-killing rate is 100%.) | 5 (Weed-killing rate is 100%.) | 5 (Weed-killing rate is 100%.) | 3 (Crop-killing rate is 70-89%.) | 4 (Crop-killing rate is 90-99%.) | 5 (Weed-killing rate is 100%.) | 5 (Weed-killing rate is 100%.) | 5 (Weed-killing rate is 100%.) | 5 (Weed-killing rate is 100%.) | 5 (Weed-killing rate is 100%.) | 5 (Weed-killing rate is 100%.) | 3 (Crop-killing rate is 70-89%.) | Phytotoxicity Wh (wheat): 4 (Crop-killing rate is 90-99%.)
